Non-standard residues stand in square brackets, D forms with d. No end group written: not given here. FAM = fluorescent dye label; Ahx = NCCCCCC(=O)O; βAla = NCCC(=O)O
System: HeLa cells
Assay: Evaluation of cell-penetrating function by flow cytometry (mean fluorescent intensity)
Format: cell-based, human
Settings: for MFI (mean fluorescent intensity of measurement target cell populations): 10 μM final concentration, 20-hour incubation at 37° C., 0.5% DMSO, flow cytometer FL2, 10,000 cells
Experimental: HeLa cells (established cell lines derived from human cervical cancer cells) were used as eukaryotic cells, and cell-penetrating functions of three samples (constructs for introducing a foreign substance) obtained in Example 1 were examined
In this example, Examples 1 to 3 were set according to the kind of peptide used as shown below. In addition, as Examples 4 and 5, peptide-free groups were set. The following test was performed in a total of 5 categories. Here, the concentration described below was a final concentration during the following 20-hour incubation.
Here, in all of the examples, the concentration of DMSO was adjusted to 0.5% during the following 20-hour incubation. In addition, the number of test wells (n) in each of the above examples was set to 3.
HeLa cells were cultured using a mixed solution containing a 90% Eagle's MEM medium (containing 0.1% non-essential amino acid, 2 mM of L-glutamine, 1 mM of sodium pyruvate, and 1.5 g/L of sodium bicarbonate) and 10% serum (FBS: fetal bovine serum) as a culture solution.
The HeLa cells were subjected to a trypsin treatment with a 0.25% trypsin/EDTA solution at 37° C. for 3 minutes. After the above treatment, trypsin was inactivated using the culture solution. Centrifugation was performed and the centrifugal supernatant was removed. The cell pellet obtained by centrifugation was suspended in a fresh culture solution. A cell suspension (sample for introducing a foreign substance) having a cell concentration of about 1×10^5 cells/well was prepared from the culture solution, and 2 ml thereof was seeded in each well of a commercially available 6-well plate (commercially available from Iwaki). Then, the cells were cultured at 37° C. for 4 hours under 5% CO2 conditions, and adhesion of the seeded cells was confirmed.
Then, 1 ml of the culture supernatant was removed from the well after the culture for 4 hours, and a culture solution containing Sample 1 at a concentration of 20 μM was added. That is, the final sample concentration in the well was 10 μM.
The plate was then incubated at 37° C. for 20 hours under 5% CO2 conditions.
After such incubation for 20 hours, the cells were washed twice with PBS at 1 ml/well. Then, the cells in the wells were treated with a 0.25% trypsin/EDTA solution at 200 μL/well at 37° C. for 3 minutes. Then, a culture solution at 400 μL/well was additionally added and the cells were collected in the tube. Then, the wells were additionally washed with PBS at 600 μL/well, and the cells remaining in the wells were collected in the above tube. The tube was centrifuged at 4° C. for 5 minutes under 210×g conditions. The centrifugal supernatant was removed, and the cell pellet was suspended (washed) in 1 ml PBS, and centrifuged under the same conditions as above. This operation was repeated twice.
Then, the collected cells were analyzed using a flow cytometer. […]
Using the above flow cytometer, gating was performed based on forward scatter (FSC) and side scatter (SSC), and a gate was set for a measurement target cell population. Then, the fluorescent intensity of the cell population within such a gate was measured. The fluorescent intensity of 10,000 measurement target cells was measured for each measurement sample. […] The measurement results were analyzed using commercially available analysis software “FlowJo (registered trademark)” (commercially available from TreeStar), and a mean fluorescent intensity (MFI) of measurement target cell populations was obtained. […]

| Substance | MFI (mean fluorescent intensity of measurement target cell populations) | cell permeability (comparison of MFI among samples) (10 μM, 20-hour incubation) |
| --- | --- | --- |
| 5(6)-Carboxyfluorescein [Example 4] | 9.7 | – |
| FAM-KKRTLRKNDRKKR-CONH2 ({FAM}-KKRTLRKNDRKKR-NH2) [Example 2] | 24 | – |
| FAM-TLKERCLQVVRSLVKKKRTLRKNDRKKR-CONH2 ({FAM}-TLKERCLQVVRSLVKKKRTLRKNDRKKR-NH2) [Example 1] | 8.2 × 10^2 | the best |
| RXRRBRRXRYQFLIRXRBRXRB-FAM (R[Ahx]RR[βAla]RR[Ahx]RYQFLIR[Ahx]R[βAla]R[Ahx]R[βAla]-{FAM}) [Example 3, X aminohexanoic acid, B β-alanine] | 4.0 × 10^2 | – |

Source: patent publication US20220008547A1, “Carrier Peptide Fragment and use Thereof” (TOAGOSEI CO., LTD, priority 2020, published 2022)
